Reference: PMC6094432, “Design, Synthesis and Evaluation of Substituted Aryl-2-Nitrovinyl Derivatives as Small Molecules Proteasome Inhibitors” (Iranian Journal of Pharmaceutical Research : IJPR, 2018)
Where two headings read alike, the source gives them in different places.

Key:
[1] = biological target: T1, 20S proteasome ChT-L activity (Homo sapiens, UniProt P28074); experiment: Cell-based 20S proteasome ChT-L inhibition assay in MCF-7 cells
T1 construct: This assay measures the ChT-L protease activity in cultured cells; endogenous in cells; host or cells: MCF-7 and PC-3 cells
Method: (§1) Cell-based proteasome inhibition assay
(§2) The effect of the derivatives on the 20S proteasome activity was determined using the 20S proteasome activity assay kit from Sigma (USA). This assay measures the ChT-L protease activity in cultured cells and is based on the detection of the fluorophore R110 after cleavage from the labeled substrate LLVY-R110. MCF-7 and PC-3 cells were pretreated with different concentrations of corresponding compounds and proteasome activities were determined according to the manufacturer′s protocol. Proteasome activity generates strongly green fluorescent R110, which was monitored at an excitation wavelength of 480 nm and emission of […] on a microplate fluorescence reader. All data were calculated by subtracting the blank control.

[2] = test system: PC-3 cells; experiment: Cell viability (MTT) assay, PC-3; type: cell-based; settings: Homo sapiens, read-out: Cell cytotoxicity assay IC50 PC-3
Method: (§3) Human breast cancer (MCF-7), and human prostate cancer (PC-3) cells were cultured in their respective media supplemented with 10% fetal bovine serum (FBS). The cells were cultured at 1 × 10^4 cells per well, in a 96-well plate and incubated for 24-48 h to obtain cell attachments. Afterwards, the cells were treated with different concentrations of test compounds for 48 h and then incubated with 20 µL of 5 mg/mL 3-(4,5-dimethylthiazol-2-yl)-2,5-diphenyl tetrazolium bromide (MTT) solution for 4 h. After aspiration of the MTT solution, 100 µL of DMSO was added to each well to dissolve formazan crystals. The absorbance of each well was measured at the wavelength of 550 nm using an enzyme-linked immunosorbent assay reader. IC50 values were calculated from the curves generated by plotting the percentage of the viable cells versus the test concentration on a logarithmic scale using SigmaPlot 10.0 software.

[3] = biological target: T1, 20S proteasome ChT-L activity; experiment: Cell-based 20S proteasome ChT-L inhibition assay in PC-3 cells
Method: as §1, §2

[4] = test system: MCF-7 cells; experiment: Cell viability (MTT) assay, MCF-7; type: cell-based; settings: Homo sapiens, read-out: Cell cytotoxicity assay IC50 MCF-7
Method: as §3

[5] = MCF7, MCF-7 cells, percent inhibition at 10 µM, ChT-L activity, LLVY-R110 substrate, read-out: 20S proteasome inhibition, Inhibition [%] MCF-7
[6] = MCF-7 cells, ChT-L activity, LLVY-R110 substrate
[7] = PC-3, MTT, 48 h treatment, mean ± SD of three independent experiments
[8] = PC-3 cells, percent inhibition at 25 µM, ChT-L activity, LLVY-R110 substrate, read-out: 20S proteasome inhibition, Inhibition [%] PC-3
[9] = PC-3 cells, ChT-L activity, LLVY-R110 substrate
[10] = MCF7, MCF-7, MTT, 48 h treatment, mean ± SD of three independent experiments

| SMILES | inhibition at 10 µM ([1]; MCF7, read-out: 20S proteasome inhibition, Inhibition [%] MCF-7) [%] | IC50 ([2]; PC-3, 48 h) [µM] | inhibition at 25 µM ([3]; PC-3, read-out: 20S proteasome inhibition, Inhibition [%] PC-3) [%] | IC50 ([4]; MCF7, 48 h) [µM] | inhibition at 10 µM [1, 5] [%] | IC50 [1, 6] [µM] | IC50 [2, 7] [µM] | inhibition at 25 µM [3, 8] [%] | IC50 [3, 9] [µM] | IC50 [4, 10] [µM] | melting point [°C] |
| --- | --- | --- | --- | --- | --- | --- | --- | --- | --- | --- | --- |
| CC(C)C[C@H](NC(=O)[C@H](Cc1ccccc1)NC(=O)c1cnccn1)B(O)O [Bortezomib, bortezomib, reference compound] | 86.7 ± 5.1 | 0.26 ± 0.02 | 74 ± 4.6 | 0.04 ± 0.01 | – | – | – | – | – | – | – |
| O=[N+]([O-])C=Cc1ccccc1 [Compound 1a, (2-nitrovinyl)benzene] | – | – | – | – | 85.2 ± 5.9 | 3.67 ± 0.27 | 39.9 ± 0.97 | 78.6 ± 3.2 | 38 ± 3.24 | 5.23 ± 0.17 | – |
| O=[N+]([O-])C=Cc1ccc(Cl)cc1 [Compound 1b, 1-chloro-4-(2-nitrovinyl)benzene] | – | – | – | – | 93.9 ± 2.4 | 5.63 ± 0.39 | 78.4 ± 3.22 | 84.3 ± 2.7 | 48 ± 5.39 | 7.11 ± 0.22 | – |
| Cc1ccc(C=C[N+](=O)[O-])cc1 [Compound 1c, 1-methyl-4-(2-nitrovinyl)benzene] | – | – | – | – | 88.9 ± 4.6 | 5.23 ± 0.15 | 70.4 ± 4.33 | 80.1 ± 5.4 | 36 ± 2.14 | 9.63 ± 0.25 | – |
| COc1ccc(C=C[N+](=O)[O-])cc1 [Compound 1d, 1-methoxy-4-(2-nitrovinyl) benzene] | – | – | – | – | 89.6 ± 4.4 | 1.21 ± 0.07 | 60.3 ± 5.11 | 84.5 ± 3.9 | 29.4 ± 2.91 | 2.2 ± 0.06 | – |
| CN(C)c1ccc(C=C[N+](=O)[O-])cc1 [Compound 1e, N, N-dimethyl-4-(2-nitrovinyl)benzenamine] | – | – | – | – | – | > 50 | 188 ± 10.3 | – | > 50 | 43.9 ± 1.27 | – |
| O=[N+]([O-])C(=Cc1ccccc1)CO [Compound 2a, 2-Nitro-3-phenylprop-2-en-1-ol] | – | 29.27 ± 0.12 | – | 2.4 ± 0.08 | 90.3 ± 5 | 1.7 ± 0.02 | – | 72.4 ± 2.2 | 21.7 ± 1.17 | – | – |
| O=[N+]([O-])C(=Cc1ccc(Cl)cc1)CO [Compound 2b, 2-Nitro-3-(4-chlorophenyl)prop-2-en-1-ol] | – | 20.79 ± 0.01 | – | 17.34 ± 0.13 | 44.1 ± 2.8 | 10.3 ± 0.17 | – | 40.3 ± 1.9 | 22.02 ± 0.09 | – | – |
| Cc1ccc(C=C(CO)[N+](=O)[O-])cc1 [Compound 2c, 2-Nitro-3-(4-tolyl)prop-2-en-1-ol] | – | 46.6 ± 6.72 | – | 5.08 ± 0.05 | 93.4 ± 5.2 | 2.82 ± 0.06 | – | 87 ± 4.1 | 25.9 ± 2.37 | – | 52 to 54 |
| COc1ccc(C=C(CO)[N+](=O)[O-])cc1 [Compound 2d, 2-Nitro-3-(4-methoxyphenyl)prop-2-en-1-ol] | – | 32.3 ± 2.04 | – | 1.17 ± 0.04 | 85 ± 6.1 | 0.71 ± 0.01 | – | 86.3 ± 5 | 17.8 ± 1.05 | – | – |
| O=[N+]([O-])C(=Cc1ccccc1)Cc1ccccc1 [Compound 4a, 3-(phenyl)-2-nitroallylbenzene] | – | 48.8 ± 2.71 | – | 10.7 ± 0.16 | 54.9 ± 4.3 | 7.56 ± 0.11 | – | 42.7 ± 3.6 | 39.6 ± 16.3 | – | – |
| O=[N+]([O-])C(=Cc1ccc(Cl)cc1)Cc1ccccc1 [Compound 4b, 3-(4-chlorophenyl)-2-nitroallylbenzene] | – | 70.74 ± 0.08 | – | 15.9 ± 0.2 | 50.4 ± 3.9 | 11.1 ± 0.17 | – | 63.9 ± 4.4 | 40.22 ± 0.07 | – | 98 to 100 |
| Cc1ccc(C=C(Cc2ccccc2)[N+](=O)[O-])cc1 [Compound 4c, 3-(4-methylphenyl)-2-nitroallylbenzene] | – | 62.7 ± 4.21 | – | 16.56 ± 0.12 | 48.2 ± 2.8 | 9.92 ± 0.27 | – | 50.8 ± 2.7 | 30.1 ± 3.74 | – | 105 to 107 |
| COc1ccc(C=C(Cc2ccccc2)[N+](=O)[O-])cc1 [Compound 4d, 3-(4-methoxyphenyl)-2-nitroallylbenzene] | – | 79.6 ± 4.6 | – | 4.72 ± 0.07 | 60.4 ± 4.1 | 3.57 ± 0.13 | – | 54.4 ± 3.3 | 42.8 ± 5.11 | – | 53 to 56 |
| CN(C)c1ccc(C=C(Cc2ccccc2)[N+](=O)[O-])cc1 [Compound 4e, N, N-dimethyl-4-(2-nitro-3-phenylprop-1-enyl)benzenamine] | – | 332 ± 12.3 | – | 20.85 ± 0.09 | – | > 50 | – | – | > 50 | – | 110 to 113 |
| Cc1ccc(C=C(CC(C)C)[N+](=O)[O-])cc1 [Compound 6a, 1-methyl-4-(4-methyl-2-nitropent-1-enyl)benzene] | – | 73.1 ± 3.63 | – | 24.08 ± 0.18 | 43.9 ± 0.98 | 13.7 ± 4.64 | – | 40.3 ± 1.2 | 36.1 ± 4.1 | – | – |
| COc1ccc(C=C(CC(C)C)[N+](=O)[O-])cc1 [Compound 6b, 1-methoxy-4-(4-methyl-2-nitropent-1-enyl)benzene] | – | 60.07 ± 0.01 | – | 5.27 ± 0.03 | 45.7 ± 3.6 | 3.82 ± 0.15 | – | 50.2 ± 3.5 | 20.5 ± 1.09 | – | – |
